Assay results taken from article PMC9241695, “Selective Metal Chelation by a Thiosemicarbazone Derivative Interferes with Mitochondrial Respiration and Ribosome Biogenesis in Candida albicans” (Microbiology Spectrum, 2022).
In brackets after ≈: the same amount, converted by molar mass.

Columns and labels:
C. krusei CK1 = test: Microbroth dilution MIC80; type: cell-based, Candida krusei; conditions: Pichia kudriavzevii, CK1
Description: Compound library. The thiosemicarbazone derivatives Triapine and COTI-2 were purchased from Med Chem Express (MCE). The other 87 thiosemicarbazones used in this study were previously synthesized by our collaborators (1, 2). Their structures are shown in Table 1 and Table S1 to help the reader clearly understand the relationship between structure and activity.
Strains and culture conditions. Clinically derived C. albicans isolates, including G5, F5, and Gu5, were kindly provided by Professor Joachim Morschhäuser of the University of Würzburg. Other clinical C. albicans isolates were kindly donated by Professor Qingguo Qi of Shandong University and Qianfoshan Hospital of Shandong Province Other Candida strains were obtained from Jinan Central Hospital.
The zap1 mutant and its complemented strain were kindly provided by Professor Aaron P. Mitchell of Carnegie Mellon University (3). The C. neoformans strains used in this study was kindly donated by Professor Guojian Liao of Southwest University and A. fumigatus strain used in this study was provided by Professor Ling Lu of Nanjing Normal University. Before in vitro and in vivo experiments, all C. albicans strains were grown on YPD agar plates. After culturing at 30°C for 24 h, colonies of each strain were cultured in liquid YPD medium at 30°C with continuous shaking […]
Antifungal susceptibility testing. To determine in vitro antifungal activities, the microbroth dilution method was carried out in RPMI1640 medium according to the guidelines of the Clinical and Laboratory Standards Institute (4, 5). The initial concentration in RPMI1640 medium was 1 × 10^3 CFU/mL for the C. albicans and C. neoformans suspensions but 1 × 10^4 CFU/mL for A. fumigatus. The range of final drug concentrations was 0.0156–64 μg/mL. The plates were incubated at35°C for 24 […]
h (for C. albicans, C. krusei, C. tropicalis, C. parapsilosis) or 48 h (for C. neoformans, A. fumigatus). The MIC was determined based on visible growth inhibition compared with the control. All experiments were performed in duplicate. […]

C. albicans SC5314 [1] = test: CCK-8 reduction assay, mitochondrial dehydrogenase activity; type: cell-based, Candida albicans; conditions: 0.125 μg/mL to 5 μg/mL
Description: The Cell Counting Kit-8
(CCK-8) assay is used to measure the dehydrogenase activity in the mitochondria of C. albicans or mammalian cells. C. albicans SC5314 (5 × 10^6 cells/mL in RPMI1640 medium) were treated with different concentrations of 19ak in 96-well plates at 30°C for 12 h or 48 h. 10 μL of CCK-8 solution was added to each well. After an additional 2 h of incubation, OD450 in each well was detected with a microplate reader. […]

C. albicans SC5314 [2] = test: G. mellonella infection model; type: in vivo, Galleria mellonella; conditions: 19ak 0.4 μg per larva, FLC 2 μg per larva
Description: The G. mellonella infection model was used to evaluate the in vivo activity of 19ak in terms of survival, fungal burden, and histological features. A total of 60 larvae of similar size were selected and randomly allocated to four groups. The last right foreleg of each larva was injected with 10 μL of C. albicans SC5314 suspension (2 × 10^7 CFU/mL). Two hours after infection, the larvae were injected with 10 μL of drug or vehicle as follows for the four groups: 19ak (0.4 μg per larva), FLC (2 μg per larva), control (PBS), and blank control (no injection with C. albicans but injections of sterile PBS twice). The data for the blank control are not shown because this group survived well during the experiment. Failure to respond to light contact with forceps was considered a sign of larval death. In the survival assay, the number of surviving larvae in each group was calculated at the same time every day for 4 days.
To determine fungal burden, larval infection and treatment were performed as described above with groups of 30 larvae each. Each day, five larvae were randomly selected from each group and homogenized with glass beads in 0.5 mL of sterile PBS. The homogenate was serially diluted with sterile PBS, and 5 μL was spread on a yeast-peptone-dextrose solid plate ([62]). Experiments were performed at least three times independently.
We also conducted histopathological studies to explore the therapeutic effects of the drugs on G. mellonella fungal infection. First, the groups of larvae were infected as described above. After 48 h, three larvae from each group were randomly selected and fixed in 4% paraformaldehyde for sectioning and Periodic acid-Schiff (PAS) staining. The tissue was observed and photographed under an Olympus microscope with 40 × magnification (IX71, Olympus, Tokyo, Japan). The experiments were performed independently a minimum of three times.

SMILES: C/C(=N\NC(=S)N(C)C)c1ccccn1 [Compound 19ak]
- MIC80 (C. krusei CK1): 0.125 µg/mL (≈ 0.562 µM)
- Mitochondrial dehydrogenase activity of C. albicans (CCK-8, absorbance at 450 nm) (C. albicans SC5314 [1]): decreased accordingly in a dose-dependent manner
- Histopathology of infected larvae (C. albicans SC5314 [2]; 48 h, PAS staining): fewer infected areas
- Fungal burden of infected larvae (C. albicans SC5314 [2]; compared with the control group): greatly reduced the fungal burden
- Survival rate of infected larvae (C. albicans SC5314 [2]; after 4 days of infection, 2 h after infection): 67%
